# Patent US10611748B2, “Xanthone derivatives for the treatment of hepatitis B virus disease” (Hoffmann-La Roche Inc., priority 2017, dated 2020)
# System: extracellular HBeAg level (surrogate marker for cccDNA) in HepDES19 cells
# Test: HepDES19 primary screen assay
# Assay type: cell-based, HBV
# Settings: Hepatitis B virus, 120 h, 5 days compound incubation, HBeAg ELISA
# Text: The assay was employed to primarily screen for novel cccDNA inhibitors. HepDES19 is an engineered cell line which contains a 1.1 unit length HBV genome, and pgRNA transcription from the transgene is controlled by Tetracycline (Tet). In the absence of Tet, pgRNA transcription will be induced, but HBV e antigen (HBeAg) could not be produced from this pgRNA due to the fact that the very short leader sequence before the HBeAg start codondisrupted the start codon. Only after cccDNA is formed, the missing leader sequence and start codon mutation would be restored from the 3′-terminal redundancy of pgRNA, and then HBeAg could be synthesized. Therefore, HBeAg could be used as a surrogate marker for cccDNA (Zhou, T. et al., Antiviral Res(2006), 72(2), 116-124; Guo, H. et al., J. Virol (2007), 81(22), 12472-12484).
# HepDES19 cells were seeded at 2×10^6 cells per T150 flask and cultured with the culture medium (Dulbecco's Modified Eagle Medium: Nutrient Mixture F-12 (DMEM:F12, Gibco Cat. 11320-82), 10% Fetal Bovine Serum (FBS, Clontech Cat. 631101), 0.1 mM Non-Essential Amino Acids Solution (NEAA, Gibco Cat. 11140-050), 50 μg/mL Penicillin-Streptomycin (PS, Invitrogen Cat. 15140-163), 500 μg/mL Geneticin (G418, Invitrogen Cat. 10131-027) containing 3 μg/mL Tet (Sigma, Cat. 87128) for 5 days. Cells were then seeded at 4×10^6 cells per T150 in the same culture medium as described above in the absence of Tet for 8 days. Cells were then harvested and frozen at density of 2×10^6 cells per mL. For compound testing, the frozen cells were thawed and seeded into 96-well plates at a density of 6×10^4 cells per well. At 24 hrs after seeding, half log serial dilutions of compounds made with Dimethyl sulfoxide (DMSO, Sigma, Cat. D2650) were further diluted with the same culture medium as described above before they were added to the cells to reach desired final compound concentrations and 1% DMSO concentration. Plates were then incubated at 37° C. for another 5 days before measurement of HBeAg level and cell viability. Extracellular HBeAg level were measured with enzyme-linked immunosorbent assay (ELISA) kit (Shanghai Kehua Diagnostic Medical Products Co., Ltd). Cell viability was assessed using Cell Counting Kit-8 (Donjindo, Cat. CK04-20). IC50 values were derived from the dose-response curve using 4 parameter logistic curve fit method.
# The compounds of the present invention were tested for their capacity to inhibit extracellular HBeAg level as described herein.
row,SMILES,IC50 [µM]
1,"O=c1c2ccc(N3CCCC3)cc2oc2c(Cl)cccc12 [Example 1, 5-chloro-3-pyrrolidin-1-yl-xanthen-9-one]",0.23
2,"O=C(O)CC1CCN(c2ccc3c(=O)c4cccc(Cl)c4oc3c2)C1 (centres unmarked) [Example 8, 2-[1-(5-chloro-9-oxo-xanthen-3-yl)pyrrolidin-3-yl]acetic Acid]",7.53
3,"O=c1c2ccc(N3CCCCC3)cc2oc2c(F)cccc12 [Example 9, 5-fluoro-3-(1-piperidyl)xanthen-9-one]",0.98
4,"O=c1c2ccc(N3CCC(CO)C3)cc2oc2c(Cl)cccc12 (centres unmarked) [Example 10, 5-chloro-3-[3-(hydroxymethyl)pyrrolidin-1-yl]xanthen-9-one]",1.13
5,"COC(=O)C1CCN(c2ccc3c(=O)c4cccc(Cl)c4oc3c2)C1 (centres unmarked) [Example 11, Methyl 1-(5-chloro-9-oxo-xanthen-3-yl)pyrrolidine-3-carboxylate]",1.17
6,"O=c1c2ccc(N3CCCC(O)C3)cc2oc2c(Cl)cccc12 (centres unmarked) [Example 12, 5-chloro-3-(3-hydroxy-1-piperidyl)xanthen-9-one]",2.88
7,"O=c1c2ccc(N3CCCCCC3)cc2oc2c(F)cccc12 [Example 13, 3-(azepan-1-yl)-5-fluoro-xanthen-9-one]",5.49
8,"O=C(O)C1CCCN(c2ccc3c(=O)c4cccc(Cl)c4oc3c2)C1 (centres unmarked) [Example 14, 1-(5-chloro-9-oxo-xanthen-3-yl)piperidine-3-carboxylic acid]",5.79
9,"O=C(O)[C@H]1CN(c2ccc3c(=O)c4cccc(Cl)c4oc3c2)C[C@@H]1c1ccc(F)cc1 [Example 15, (3R,4S)-1-(5-chloro-9-oxo-xanthen-3-yl)-4-(4-fluorophenyl)pyrrolidine-3-carboxylic Acid]",7.39
10,"CC1(C(=O)O)CCN(c2ccc3c(=O)c4cccc(Cl)c4oc3c2)C1 (centres unmarked) [Example 16, 1-(5-chloro-9-oxo-xanthen-3-yl)-3-methyl-pyrrolidine-3-carboxylic Acid]",11.2
11,"CC1(C)CN(c2ccc3c(=O)c4cccc(Cl)c4oc3c2)CC1C(=O)O (centres unmarked) [Example 17, 1-(5-chloro-9-oxo-xanthen-3-yl)-4,4-dimethyl-pyrrolidine-3-carboxylic Acid]",12.7
12,"O=C(O)[C@H]1CN(c2ccc3c(=O)c4cccc(Cl)c4oc3c2)C[C@@H]1c1cccnc1 [Example 18, (3R,4S)-1-(5-chloro-9-oxo-xanthen-3-yl)-4-(3-pyridyl)pyrrolidine-3-carboxylic Acid]",16.6
13,"O=C(O)C1(C(F)(F)F)CCN(c2ccc3c(=O)c4cccc(Cl)c4oc3c2)C1 (centres unmarked) [Example 19, 1-(5-chloro-9-oxo-xanthen-3-yl)-3-(trifluoromethyl)pyrrolidine-3-carboxylic Acid]",27
14,"O=C(O)[C@@H]1CN(c2ccc3c(=O)c4cccc(Cl)c4oc3c2)C[C@H]1c1ccc(Cl)cc1 [Example 20, (3S,4R)-1-(5-chloro-9-oxo-xanthen-3-yl)-4-(4-chlorophenyl)pyrrolidine-3-carboxylic Acid]",46.6
15,"O=c1c2ccc(N3CCCC3)cc2oc2c(F)cccc12 [Example 21, 5-fluoro-3-pyrrolidin-1-yl-xanthen-9-one]",0.27
16,"O=c1c2ccc(N3CCCC3)cc2oc2c(F)ccc(Cl)c12 [Example 22, 1-chloro-4-fluoro-6-pyrrolidin-1-ylxanthen-9-one]",0.74
17,"O=C1CCCN1c1ccc2c(=O)c3cccc(F)c3oc2c1 [Example 23, 1-(5-fluoro-9-oxo-xanthen-3-yl)pyrrolidin-2-one]",0.83
18,"O=c1c2ccc(N3CCC(O)C3)cc2oc2c(F)cccc12 (centres unmarked) [Example 24, 5-fluoro-3-(3-hydroxypyrrolidin-1-yl)xanthen-9-one]",1.05
19,"Cc1cc2c(=O)c3cccc(F)c3oc2cc1N1CCCC1 [Example 25, 5-fluoro-2-methyl-3-pyrrolidin-1-yl-xanthen-9-one]",1.52

row,SMILES,IC50 [µM]
1,"O=c1c2ccc(N3CC[C@H](O)C3)cc2oc2c(Cl)cccc12 [Example 27, 5-chloro-3-[(3S)-3-hydroxypyrrolidin-1-yl]xanthen-9-one]",1.95
2,"O=c1c2cc(F)c(N3CCCC3)cc2oc2c(F)cccc12 [Example 28, 2,5-difluoro-3-pyrrolidin-1-yl-xanthen-9-one]",1.86
3,"O=c1c2ccc(N3CCOCC3)cc2oc2c(F)cccc12 [Example 29, 5-fluoro-3-morpholino-xanthen-9-one]",2.13
4,"O=c1c2ccc(N3CC[C@@H](O)C3)cc2oc2c(Cl)cccc12 [Example 30, 5-chloro-3-[(3R)-3-hydroxypyrrolidin-1-yl]xanthen-9-one]",2.63
5,"O=c1c2ccc(N3CC[C@H](O)C3)cc2oc2c(F)cccc12 [Example 31, 5-fluoro-3-[(3S)-3-hydroxypyrrolidin-1-yl]xanthen-9-one]",2.71
6,"O=c1c2ccc(N3CC[C@@H](O)C3)cc2oc2c(F)cccc12 [Example 32, 5-fluoro-3-[(3R)-3-hydroxypyrrolidin-1-yl]xanthen-9-one]",2.72
7,"COC1CCN(c2ccc3c(=O)c4cccc(F)c4oc3c2)C1 (centres unmarked) [Example 33, 5-fluoro-3-(3-methoxypyrrolidin-1-yl)xanthen-9-one]",4.06
8,"O=c1c2ccc(N3CCC(c4ccncc4)C3)cc2oc2c(F)cccc12 (centres unmarked) [Example 34, 5-fluoro-3-[3-(4-pyridyl)pyrrolidin-1-yl]xanthen-9-one]",6.15
9,"O=c1c2ccc(N3CCCC3)cc2oc2c(F)cc(Cl)cc12 [Example 35, 2-chloro-4-fluoro-6-pyrrolidin-1-yl-xanthen-9-one]",16.7
10,"O=C(O)C1CCCN1c1ccc2c(=O)c3cccc(Cl)c3oc2c1 (centres unmarked) [Example 36, 1-(5-chloro-9-oxo-xanthen-3-yl)pyrrolidine-2-carboxylic Acid]",11.5
11,"O=C(O)C1CCN(c2ccc3c(=O)c4cccc(C(F)(F)F)c4oc3c2)C1 (centres unmarked) [Example 37, 1-[9-oxo-5-(trifluoromethyl)xanthen-3-yl]pyrrolidine-3-carboxylic Acid]",13.4
12,"CN1CCN(c2ccc3c(=O)c4cccc(F)c4oc3c2)CC1 [Example 38, 5-fluoro-3-(4-methylpiperazin-1-yl)xanthen-9-one]",16.1
13,"O=c1c2cnc(N3CCCC3)cc2oc2c(F)cccc12 [Example 45, 6-fluoro-3-pyrrolidin-1-yl-chromeno[3,2-c]pyridin-10-one]",0.51
14,"CN(C)C(=O)C1CCN(c2ccc3c(=O)c4cccc(Cl)c4oc3c2)C1 (centres unmarked) [Example 46, 1-(5-chloro-9-oxo-xanthen-3-yl)-N,N-dimethyl-pyrrolidine-3-carboxamide]",4.3
15,"O=c1c2ccc(N3CCC4(CNC4)C3)cc2oc2c(F)cccc12 [Example 47, 3-(2,6-diazaspiro[3.4]octan-6-yl)-5-fluoro-xanthen-9-one]",4.77
16,"O=c1c2ccc(N3CCC4(CCNC4)C3)cc2oc2c(F)cccc12 (centres unmarked) [Example 48, 3-(2,7-diazaspiro[4.4]nonan-2-yl)-5-fluoro-xanthen-9-one]",5.48
17,"O=c1c2ccc(N3CCCNCC3)cc2oc2c(F)cccc12 [Example 49, 3-(1,4-diazepan-1-yl)-5-fluoro-xanthen-9-one]",7.56
18,"N[C@H]1CCN(c2ccc3c(=O)c4cccc(F)c4oc3c2)C1 [Example 50, 3-[(3S)-3-aminopyrrolidin-1-yl]-5-fluoro-xanthen-9-one]",3.12
19,"N[C@@H]1CCN(c2ccc3c(=O)c4cccc(F)c4oc3c2)C1 [Example 51, 3-[(3R)-3-aminopyrrolidin-1-yl]-5-fluoro-xanthen-9-one]",4.85
